± gives the expanded uncertainty stated by the source.
Assay: mn = molality of the nth substance listed, in mol/kg
Conditions: 101 kPa, Liquid; for mass density: Vibrating tube method; for speed of sound: Pulse-echo method

For `CO` [methanol] + [Ca+2].[O-][Cl+3]([O-])([O-])[O-].[O-][Cl+3]([O-])([O-])[O-], which mass density (283.15 K, m2 = 0) is on record?
Its mass density is 800.54 ± 0.23 kg/m3.

What about the mass density (288.15 K, m2 = 0) of the same compound?
Its mass density is 795.862 ± 0.23 kg/m3.

And the mass density (293.15 K, m2 = 0)?
The mass density was 791.168 ± 0.23 kg/m3.

And the mass density (298.15 K, m2 = 0)?
Its mass density is 786.458 ± 0.23 kg/m3.

And the mass density (303.15 K, m2 = 0)?
Its mass density is 781.732 ± 0.23 kg/m3.

What about the mass density (308.15 K, m2 = 0) of the same compound?
The mass density was 776.98 ± 0.24 kg/m3.

What about the mass density (313.15 K, m2 = 0) of the same compound?
Its mass density is 772.203 ± 0.24 kg/m3.

What does the source list for `C[S+](C)[O-]` [dimethyl sulfoxide] + O=S(=O)([O-])C(F)(F)F.[Na+]?
mass density (293.15 K, m2 = 0): 1100.21 ± 0.18 kg/m3; mass density (298.15 K, m2 = 0): 1095.18 ± 0.18 kg/m3; mass density (303.15 K, m2 = 0): 1090.16 ± 0.18 kg/m3; mass density (313.15 K, m2 = 0): 1080.11 ± 0.22 kg/m3; mass density (323.15 K, m2 = 0): 1090.07 ± 0.44 kg/m3; mass density (333.15 K, m2 = 0): 1080.03 ± 0.68 kg/m3

Which results are given for `O=S(=O)([O-])C(F)(F)F.O=S(=O)([O-])C(F)(F)F.[Be+2]` [beryllium 1,1,1-trifluoromethanesulfonate] + C[S+](C)[O-]?
mass density (293.15 K, m1 = 0.01855): 1103.22 ± 0.23 kg/m3; mass density (293.15 K, m1 = 0.0259): 1104.42 ± 0.23 kg/m3; mass density (293.15 K, m1 = 0.03349): 1105.65 ± 0.23 kg/m3; mass density (293.15 K, m1 = 0.0433): 1107.25 ± 0.23 kg/m3; mass density (293.15 K, m1 = 0.0531): 1108.84 ± 0.23 kg/m3; mass density (293.15 K, m1 = 0.06815): 1111.3 ± 0.23 kg/m3; mass density (293.15 K, m1 = 0.08651): 1114.3 ± 0.23 kg/m3; mass density (293.15 K, m1 = 0.1051): 1117.36 ± 0.24 kg/m3; mass density (293.15 K, m1 = 0.1237): 1120.43 ± 0.24 kg/m3; mass density (293.15 K, m1 = 0.1446): 1123.89 ± 0.24 kg/m3; mass density (293.15 K, m1 = 0.1621): 1126.82 ± 0.24 kg/m3; speed of sound (298.15 K, m1 = 0.0259): 1484.1 ± 0.91 m/s; speed of sound (298.15 K, m1 = 0.03349): 1484.1 ± 0.92 m/s; speed of sound (298.15 K, m1 = 0.0433): 1484.1 ± 0.92 m/s; speed of sound (298.15 K, m1 = 0.0531): 1484.1 ± 0.92 m/s; speed of sound (298.15 K, m1 = 0.06815): 1484.1 ± 0.92 m/s; speed of sound (298.15 K, m1 = 0.08651): 1484.1 ± 0.93 m/s; speed of sound (298.15 K, m1 = 0.1051): 1484.1 ± 0.93 m/s; speed of sound (298.15 K, m1 = 0.1237): 1484.1 ± 0.94 m/s; speed of sound (298.15 K, m1 = 0.1446): 1484.1 ± 0.94 m/s; speed of sound (298.15 K, m1 = 0.1621): 1484.1 ± 0.95 m/s; mass density (298.15 K, m1 = 0.01855): 1098.21 ± 0.23 kg/m3; mass density (298.15 K, m1 = 0.0259): 1099.41 ± 0.23 kg/m3; mass density (298.15 K, m1 = 0.03349): 1100.64 ± 0.23 kg/m3; mass density (298.15 K, m1 = 0.0433): 1102.25 ± 0.23 kg/m3; mass density (298.15 K, m1 = 0.0531): 1103.84 ± 0.23 kg/m3; mass density (298.15 K, m1 = 0.06815): 1106.31 ± 0.23 kg/m3; mass density (298.15 K, m1 = 0.08651): 1109.32 ± 0.23 kg/m3; mass density (298.15 K, m1 = 0.1051): 1112.4 ± 0.24 kg/m3; mass density (298.15 K, m1 = 0.1237): 1115.48 ± 0.24 kg/m3; mass density (298.15 K, m1 = 0.1446): 1118.95 ± 0.24 kg/m3; mass density (298.15 K, m1 = 0.1621): 1121.88 ± 0.24 kg/m3; mass density (303.15 K, m1 = 0.01855): 1093.19 ± 0.23 kg/m3; mass density (303.15 K, m1 = 0.0259): 1094.4 ± 0.23 kg/m3; mass density (303.15 K, m1 = 0.03349): 1095.64 ± 0.23 kg/m3; mass density (303.15 K, m1 = 0.0433): 1097.25 ± 0.23 kg/m3; mass density (303.15 K, m1 = 0.0531): 1098.85 ± 0.23 kg/m3; mass density (303.15 K, m1 = 0.06815): 1101.33 ± 0.23 kg/m3; mass density (303.15 K, m1 = 0.08651): 1104.35 ± 0.23 kg/m3; mass density (303.15 K, m1 = 0.1051): 1107.44 ± 0.23 kg/m3; mass density (303.15 K, m1 = 0.1237): 1110.52 ± 0.24 kg/m3; mass density (303.15 K, m1 = 0.1446): 1114.01 ± 0.24 kg/m3; mass density (303.15 K, m1 = 0.1621): 1116.95 ± 0.24 kg/m3; mass density (313.15 K, m1 = 0.01855): 1083.18 ± 0.22 kg/m3; mass density (313.15 K, m1 = 0.0259): 1084.39 ± 0.23 kg/m3; mass density (313.15 K, m1 = 0.03349): 1085.64 ± 0.23 kg/m3; mass density (313.15 K, m1 = 0.0433): 1087.27 ± 0.23 kg/m3; mass density (313.15 K, m1 = 0.0531): 1088.88 ± 0.23 kg/m3; mass density (313.15 K, m1 = 0.06815): 1091.37 ± 0.23 kg/m3; mass density (313.15 K, m1 = 0.08651): 1094.41 ± 0.23 kg/m3; mass density (313.15 K, m1 = 0.1051): 1097.52 ± 0.23 kg/m3; mass density (313.15 K, m1 = 0.1237): 1100.63 ± 0.24 kg/m3; mass density (313.15 K, m1 = 0.1446): 1104.14 ± 0.24 kg/m3; mass density (313.15 K, m1 = 0.1621): 1107.09 ± 0.24 kg/m3; mass density (323.15 K, m1 = 0.01855): 1073.16 ± 0.22 kg/m3; mass density (323.15 K, m1 = 0.0259): 1074.38 ± 0.22 kg/m3; mass density (323.15 K, m1 = 0.03349): 1075.64 ± 0.22 kg/m3; mass density (323.15 K, m1 = 0.0433): 1077.27 ± 0.23 kg/m3; mass density (323.15 K, m1 = 0.0531): 1078.9 ± 0.23 kg/m3; mass density (323.15 K, m1 = 0.06815): 1081.41 ± 0.23 kg/m3; mass density (323.15 K, m1 = 0.08651): 1084.48 ± 0.23 kg/m3; mass density (323.15 K, m1 = 0.1051): 1087.61 ± 0.23 kg/m3; mass density (323.15 K, m1 = 0.1237): 1090.75 ± 0.23 kg/m3; mass density (323.15 K, m1 = 0.1446): 1094.27 ± 0.24 kg/m3; mass density (323.15 K, m1 = 0.1621): 1097.24 ± 0.24 kg/m3; mass density (333.15 K, m1 = 0.01855): 1063.14 ± 0.22 kg/m3; mass density (333.15 K, m1 = 0.0259): 1064.37 ± 0.22 kg/m3; mass density (333.15 K, m1 = 0.03349): 1065.64 ± 0.22 kg/m3; mass density (333.15 K, m1 = 0.0433): 1067.29 ± 0.22 kg/m3; mass density (333.15 K, m1 = 0.0531): 1068.92 ± 0.23 kg/m3; mass density (333.15 K, m1 = 0.06815): 1071.46 ± 0.23 kg/m3; mass density (333.15 K, m1 = 0.08651): 1074.55 ± 0.23 kg/m3; mass density (333.15 K, m1 = 0.1051): 1077.69 ± 0.23 kg/m3; mass density (333.15 K, m1 = 0.1237): 1080.86 ± 0.23 kg/m3; mass density (333.15 K, m1 = 0.1446): 1084.41 ± 0.23 kg/m3; mass density (333.15 K, m1 = 0.1621): 1087.39 ± 0.24 kg/m3

Which mass density (283.15 K, m2 = 0) does the source give for `CO` [methanol] + [Mg+2].[O-][Cl+3]([O-])([O-])[O-].[O-][Cl+3]([O-])([O-])[O-] here?
The mass density was 800.542 ± 0.23 kg/m3.

And the mass density (288.15 K, m2 = 0)?
Its mass density is 795.864 ± 0.23 kg/m3.

What about the mass density (293.15 K, m2 = 0) of the same compound?
The mass density was 791.17 ± 0.23 kg/m3.

And the mass density (298.15 K, m2 = 0)?
The mass density was 786.46 ± 0.23 kg/m3.

What about the mass density (303.15 K, m2 = 0) of the same compound?
Its mass density is 781.735 ± 0.23 kg/m3.

What about the mass density (308.15 K, m2 = 0) of the same compound?
Its mass density is 776.985 ± 0.23 kg/m3.

And the mass density (313.15 K, m2 = 0)?
Its mass density is 772.206 ± 0.23 kg/m3.

With `CO` [methanol] + O=S(=O)([O-])C(F)(F)F.[Na+] as the compound, how does the mass density (283.15 K, m2 = 0) read?
The mass density was 800.544 ± 0.17 kg/m3.

What about the mass density (288.15 K, m2 = 0) of the same compound?
Its mass density is 795.854 ± 0.17 kg/m3.

And the mass density (293.15 K, m2 = 0)?
The mass density was 791.158 ± 0.17 kg/m3.

What about the mass density (298.15 K, m2 = 0) of the same compound?
The mass density was 786.447 ± 0.18 kg/m3.

What about the mass density (303.15 K, m2 = 0) of the same compound?
The mass density was 781.714 ± 0.18 kg/m3.

And the mass density (308.15 K, m2 = 0)?
Its mass density is 776.97 ± 0.18 kg/m3.

And the mass density (313.15 K, m2 = 0)?
The mass density was 772.195 ± 0.18 kg/m3.

From the NIST ThermoML archive (doi:10.1016/j.jct.2010.04.013)
